Reference: PMC8078842 (PLoS Neglected Tropical Diseases, 2021)

Key:
[1] = target: Imidazoline, I2 [central]; assay: CNS side effect panel, [^3H]2-BFI; format: binding
[2] = target: Oxidase, MAO-B, Peripheral (Rattus norvegicus, UniProt P19643); assay: CNS side effect panel, [^14C]Phenylethylamine; format: biochemical
[3] = target: Muscarinic, Non-selective, Central; assay: CNS side effect panel, [^3H]QNB; format: binding
[4] = tested on: Adrenergic, Alpha 2, Non-selective; assay: CNS side effect panel, [^3H]RX821002; format: binding; conditions: pentamidine 1.0E^-5 M
Sodium, Site 2 = assay: CNS side effect panel, [^3H]Batrachotoxin A 20-a-Benzo; format: binding; conditions: pentamidine 1.0E^-5 M
[5] = target: T1, Opioid, Orphanin, ORL1 (h) (Homo sapiens, UniProt P41146); assay: CNS side effect panel, [^3H] Nociceptin; format: binding; conditions: pentamidine 1.0E^-5 M
T1 construct: purchased Perkin-Elmer Science Discovery Systems (NovaScreen), customised CNS screening panel
T1 sequence (P41146 whole entry): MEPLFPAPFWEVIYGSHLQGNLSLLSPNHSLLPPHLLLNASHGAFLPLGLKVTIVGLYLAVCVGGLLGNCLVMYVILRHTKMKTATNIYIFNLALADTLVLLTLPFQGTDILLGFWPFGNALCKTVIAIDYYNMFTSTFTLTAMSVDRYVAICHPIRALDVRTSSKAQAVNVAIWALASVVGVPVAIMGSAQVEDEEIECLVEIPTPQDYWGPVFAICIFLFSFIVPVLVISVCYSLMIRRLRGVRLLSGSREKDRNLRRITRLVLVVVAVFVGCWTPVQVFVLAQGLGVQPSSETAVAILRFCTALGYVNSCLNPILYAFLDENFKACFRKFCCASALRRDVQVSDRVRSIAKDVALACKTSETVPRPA

[6] = tested on: Corticotropin Releasing Factor, Non-selective; assay: CNS side effect panel, [^125I]Tyr0-oCRF; format: binding; conditions: pentamidine 1.0E^-5 M
[7] = tested on: Nitric Oxide, NOS (Neuronal-Binding); assay: CNS side effect panel, [^3H]NOARG; conditions: pentamidine 1.0E^-5 M
GABA-B = assay: CNS side effect panel, [^3H]CGP 54626A; format: binding; conditions: pentamidine 1.0E^-5 M
[8] = tested on: Glutamate, MK-801 Site (Ionotropic); assay: CNS side effect panel, [^3H]MK-801; format: binding; conditions: pentamidine 1.0E^-5 M
Endothelin, ET-B (h) = target: T2, Endothelin, ET-B (h) (Homo sapiens, UniProt P24530); assay: CNS side effect panel, [^125I]-Endothelin-1; format: binding; conditions: pentamidine 1.0E^-5 M
T2 construct: purchased Perkin-Elmer Science Discovery Systems (NovaScreen), customised CNS screening panel
T2 sequence (P24530 27-442): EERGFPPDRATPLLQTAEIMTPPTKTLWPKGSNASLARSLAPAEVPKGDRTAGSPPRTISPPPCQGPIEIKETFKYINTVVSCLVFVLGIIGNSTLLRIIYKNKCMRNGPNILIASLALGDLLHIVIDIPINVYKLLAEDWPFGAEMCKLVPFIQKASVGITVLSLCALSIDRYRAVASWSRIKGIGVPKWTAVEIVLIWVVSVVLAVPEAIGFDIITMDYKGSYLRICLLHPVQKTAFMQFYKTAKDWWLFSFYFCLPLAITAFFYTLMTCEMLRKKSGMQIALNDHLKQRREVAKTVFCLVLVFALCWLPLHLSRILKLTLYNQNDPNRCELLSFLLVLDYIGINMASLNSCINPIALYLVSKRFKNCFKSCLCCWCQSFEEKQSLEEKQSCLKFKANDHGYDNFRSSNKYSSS

Angiotensin II, AT2 = assay: CNS side effect panel, [^125I]Tyr4-Angiotensin II; format: binding; conditions: pentamidine 1.0E^-5 M
[9] = tested on: Glutamate, AMPA Site (Ionotropic); assay: CNS side effect panel, [^3H]AMPA; format: binding; conditions: pentamidine 1.0E^-5 M
Adenosine, Non-selective = assay: CNS side effect panel, [^3H]NECA; format: binding; conditions: pentamidine 1.0E^-5 M
[10] = tested on: Cholecystokinin, CCK2 (CCKB); assay: CNS side effect panel, [^125I]CCK-8; format: binding; conditions: pentamidine 1.0E^-5 M
[11] = tested on: Glutamate,NMDA,Glycine (Stry-insens Site) (Ionot); assay: CNS side effect panel, [^3H]-MDL-105,519; format: binding; conditions: pentamidine 1.0E^-5 M
Imidazoline2 receptor = conditions: 3H-idazoxan binding; cited from earlier work

Chain of Oxidase, MAO-B, Peripheral (P19643 whole entry): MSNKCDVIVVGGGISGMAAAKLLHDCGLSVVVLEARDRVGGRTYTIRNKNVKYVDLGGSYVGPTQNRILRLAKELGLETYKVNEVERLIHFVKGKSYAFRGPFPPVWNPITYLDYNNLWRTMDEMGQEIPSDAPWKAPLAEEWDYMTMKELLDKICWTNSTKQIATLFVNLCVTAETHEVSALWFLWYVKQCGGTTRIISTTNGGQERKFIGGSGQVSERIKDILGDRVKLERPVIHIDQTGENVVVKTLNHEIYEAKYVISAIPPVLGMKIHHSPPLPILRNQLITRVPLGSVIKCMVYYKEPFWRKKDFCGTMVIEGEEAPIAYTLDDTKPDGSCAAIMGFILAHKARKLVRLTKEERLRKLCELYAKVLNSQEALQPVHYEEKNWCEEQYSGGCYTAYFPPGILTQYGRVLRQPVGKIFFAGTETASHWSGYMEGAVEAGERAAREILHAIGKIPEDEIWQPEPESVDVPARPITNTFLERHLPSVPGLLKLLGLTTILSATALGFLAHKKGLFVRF

## N=C(N)c1ccc(OCCCCCOc2ccc(C(=N)N)cc2)cc1 [Pentamidine, 1,5-bis-4ρ-amidinophenoxypentane]
[1]; Imidazoline 1_2, concentration-response
  Ki: 1 nM
[1]; pentamidine 1.0E^-5 M
  Percent Inhibition: 101.03%
[2]; Monoamine oxidase B, concentration-response
  Ki: 181 nM
[2]; pentamidine 1.0E^-5 M
  Percent Inhibition: 99.99%
[3]; Muscarinic (central), concentration-response
  Ki: 281 nM
[3]; pentamidine 1.0E^-5 M
  Percent Inhibition: 90.90%
[4]
  Percent Inhibition: 56.14%
Sodium, Site 2
  Percent Inhibition: 46.94%
[5]
  Percent Inhibition: 36.62%
[6]
  Percent Inhibition: 17.05%
[7]
  Percent Inhibition: 12.98%
GABA-B
  Percent Inhibition: 10.74%
[8]
  Percent Inhibition: 6.25%
Endothelin, ET-B (h)
  Percent Inhibition: 4.50%
Angiotensin II, AT2
  Percent Inhibition: 2.96%
[9]
  Percent Inhibition: 1.34%
Adenosine, Non-selective
  Percent Inhibition: 1.28%
[10]
  Percent Inhibition: 0.09%
[11]
  Percent Inhibition: -17.52%
Imidazoline2 receptor
  Affinity: 0.014 µM
